Laboratory results reported in patent US5712417A, “Inhibitors of retroviral proteases” (Abbott Laboratories, priority 1989, dated 1998).
pIC50: −log10 of the molar value. Where a name gives a salt, the structure may show the parent alone. Where a SMILES comes first, the peptide text is derived from it. [ ]: non-standard residue; d: D form. The star is where a group is joined. Sta = CC(C)C[C@H](N)[C@@H](O)CC(=O)O; Isovaleryl = CC(C)CC(=O)*

Columns and labels:
[1] = molecular target: T1, HIV protease (Human immunodeficiency virus type 1 group M subtype B, UniProt P04585); assay: Inhibition of HIV protease (cleavage of H-Ser-Phe-Asn-Phe-Opr-Gln-Ile-OH, HPLC); assay type: biochemical; conditions: inhibitor concentration at which the cleavage rate is halved; pH 6, 2 hours; read-out: IC50
T1 construct: HIV protease consists of 99 amino acids and is evidently split off by itself from the pol polyprotein
How it was run: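 Substrate H-Ser-Phe-Asn-Phe-Opr-Gln-Ile-OH in MGTE buffer (MES, glycerol, Triton X-100, PMSF, pH 6) preincubated with inhibitor at 37 °C for 5-10 min, then reacted with protease at 35 °C for 2 h. RP18 HPLC at 215 nm; tetrapeptide fraction gives cleavage rate, IC50 where rate is halved.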

[2] = test system: HIV protease; conditions: literature (Katoh et al., Nature 1987); cited from earlier work
[3] = test system: core protein p24; conditions: high doses; cited from earlier work
[4] = in many cases require discontinuation of the therapy; cited from earlier work
[5] = test system: HIV; conditions: first strains of HIV; cited from earlier work

pIC50 [1]	Compound	also measured
9.12	CC(C)[C@H](NC(=O)[C@H](Cc1ccc2ccccc2c1)NS(C)(=O)=O)C(=O)N[C@@H](Cc1ccccc1)[C@@H](O)[C@H](O)[C@H](Cc1ccccc1)NC(=O)[C@@H](NC(=O)[C@H](Cc1ccc2ccccc2c1)NS(C)(=O)=O)C(C)C [Example 125, N,N,-bis-<N-Mesyl-β-naphthylalanyl-L-valyl>-2S,5S-diamino-1,6-diphenylhexane-3R,4R-diol]	–
4.40	CC(C)[C@H](N)C(=O)N[C@@H](Cc1ccccc1)[C@H](O)[C@@H](O)[C@H](Cc1ccccc1)NC(=O)[C@@H](N)C(C)C [Example 131, N,N'-bis-<L-Valyl>-2S,5S-diamino-1,6-diphenylhexane-3S,4S-diol dihydrochloride]	–
4.70	N[C@@H](CCCCNC(=O)OCc1ccccc1)C(=O)N[C@@H](Cc1ccccc1)[C@@H](O)[C@H](O)[C@H](Cc1ccccc1)NC(=O)[C@@H](N)CCCCNC(=O)OCc1ccccc1 [Example 132, N,N'-bis-<N^6 -Benzoxycarbonyl-L-lysyl>-2S,5S-diamino-1,6-diphenylhexane-3R,4R-diol dihydrochloride]	–
7.02	CC(C)[C@H](NC(=O)[C@@H](N)Cc1ccccc1)C(=O)NCCCCNC(=O)[C@@H](NC(=O)[C@@H](N)Cc1ccccc1)C(C)C [Example 145, N,N'-bis-<L-Phenylalanyl-L-valyl>-1.4-diaminobutane dihydrochloride]	–
7.00	CC(C)[C@H](NC(=O)[C@H](Cc1cccc2ccccc12)CS(=O)(=O)C(C)(C)C)C(=O)NCCCCNC(=O)[C@@H](NC(=O)[C@H](Cc1cccc2ccccc12)CS(=O)(=O)C(C)(C)C)C(C)C [Example 146, N,N'-bis-<(2S-(1,1-Dimethylethylsulfonylmethyl)-3-(1-naphthyl)-propionyl)-L-valyl>-1,4-diaminobutane]	–
7.44	CC(C)[C@H](NC(=O)[C@@H](N)Cc1ccccc1)C(=O)N[C@@H](CCc1ccccc1)[C@@H](O)[C@H](O)[C@H](CCc1ccccc1)NC(=O)[C@@H](NC(=O)[C@@H](N)Cc1ccccc1)C(C)C [Example 148, N,N'-bis-(L-Phenylalanyl-L-valyl)-3S,6S-diamino-1,8-diphenyloctane-4R,5R-diol dihydrochloride]	–
8.40	CCCCC[C@H](NC(=O)[C@@H](NC(=O)[C@@H](N)Cc1ccccc1)C(C)C)[C@@H](O)[C@H](O)[C@H](CCCCC)NC(=O)[C@@H](NC(=O)[C@@H](N)Cc1ccccc1)C(C)C [Example 151, N,N'-bis-(L-Phenylalanyl-L-valyl )-6S, 9S-diamino-tetradecane-7R, 8R-diol dihydrochloride]	–
9.00	CC(C)[C@H](NC(=O)[C@@H](N)Cc1ccccc1)C(=O)N[C@@H](Cc1ccc2c(c1)OCO2)[C@@H](O)[C@H](O)[C@H](Cc1ccc2c(c1)OCO2)NC(=O)[C@@H](NC(=O)[C@@H](N)Cc1ccccc1)C(C)C [Example 154, N,N'-bis-(L-Phenylalanyl-L-valyl)-2S,5S-diamino-1,6-bis-(3,4-methylenedioxyphenyl)-hexane-3R,4R-diol dihydro-chloride]	–
8.00	CC(C)[C@H](NC(=O)[C@H](Cc1cccc2ccccc12)CS(=O)(=O)C(C)(C)C)C(=O)N[C@@H](Cc1ccc2c(c1)OCO2)[C@@H](O)[C@H](O)[C@H](Cc1ccc2c(c1)OCO2)NC(=O)[C@@H](NC(=O)[C@H](Cc1cccc2ccccc12)CS(=O)(=O)C(C)(C)C)C(C)C [Example 155]	–
7.52	CC[C@H](C)[C@H](NC(=O)[C@H](Cc1cccc2ccccc12)CS(=O)(=O)C(C)(C)C)C(=O)N[C@@H](Cc1ccccc1)[C@@H](O)[C@H](O)[C@H](Cc1ccccc1)NC(=O)[C@@H](NC(=O)[C@H](Cc1cccc2ccccc12)CS(=O)(=O)C(C)(C)C)[C@@H](C)CC [Example 156, N,N'-bis-(<2S-(1,1-Dimethylethylsulfonylmethyl)-3-(1-naphthyl)-propionyl>-L-isoleucyl)-2S,5S-diamino-1,6-diphenylhexane-3R,4R-diol]	–
–	CC(C)CC(=O)N[C@H](C(=O)N[C@H](C(=O)N[C@@H](CC(C)C)[C@@H](O)CC(=O)N[C@@H](C)C(=O)N[C@@H](CC(C)C)[C@@H](O)CC(=O)O)C(C)C)C(C)C [Pepstatin A] (Isovaleryl-VV[Sta]A[Sta]-OH)	pIC50 [2]: […]; reducing the formation of the core protein p24 [3]: capable of reducing the formation of the core protein p24
–	Cc1cn([C@H]2C[C@H](N=[N+]=[N-])[C@@H](CO)O2)c(=O)[nH]c1=O [Zidovudine (AZT)]	toxic side effects [4]: serious toxic side effects; sensitivity of HIV strains toward AZT [5]: significantly lower sensitivity

Compound	pIC50 [1]	also measured
CC(C)[C@H](NC(=O)OC(C)(C)C)C(=O)N[C@H](Cc1ccccc1)[C@@H](O)[C@H](O)[C@@H](Cc1ccccc1)NC(=O)[C@@H](NC(=O)OC(C)(C)C)C(C)C [Example 127, N,N'-bis-<tert.-Butoxycarbonyl-L-valyl>-2R,5R-diamino-1,6-diphenylhexane-3R,4R-diol]	7.34	–
CCCCC[C@H](NC(=O)[C@@H](NC(=O)[C@H](Cc1ccccc1)NC(=O)OC(C)(C)C)C(C)C)[C@@H](O)[C@H](O)[C@H](CCCCC)NC(=O)[C@@H](NC(=O)[C@H](Cc1ccccc1)NC(=O)OC(C)(C)C)C(C)C [Example 150, N,N'-bis-(tert.-Butoxycarbonyl-L-phenylalanyl-L-valyl)-6S,9S-diaminotetradecane-7R, 8R-diol]	7.02	–
